Patent publication US20220087970A1, “PREVENTION OF ANESTHETIC-INDUCED NEUROCOGNITIVE DYSFUNCTION” (The Johns Hopkins University, priority 2019, published 2022)

Experiments:
caspase-3 = test: Western blot for cleaved caspase-3 (apoptosis) after PND7 exposure; assay type: in vivo; details: PND7 mice, 4 h treatment (1.5% ISO in 100% O2 or peptide 8 mg/kg ip), 2 h following cessation of exposure
Experimental: 1.3.2 Anesthesia, Peptide, and Molsidomine Injections. PND7 control and experimental mice were placed in a clear plastic cone and body temperature maintained by a heating blanket set to 35° C. Vital signs and physiological monitoring were assessed using PhysioSuite® (Kent Scientific Corporation, Torrington, Conn., USA) and blood gasses were collected arterially. […] Note that lower concentrations of 02 can be used, e.g., between 20% to 100% 02, including 20%, 25%, 30%, 35%, 40%, 45%, 50%, 55%, 60%, 65%, 70%, 75%, 80%, 85%, 90%, 95%, 96%, 97%, 98%, 99%, and 100% 02. Naïve animals were left with the dams. Anesthesia was initiated with 2.4% ISO in 100% oxygen for 2 min and tapered down to 1.5% within 15 min. Exposure to 1.5% ISO was continued for 3 hours and 45 min (total 4 hours ISO). Control ‘CON’ animals were exposed to 100% oxygen only. At the end of the exposure animals were maintained in oxygen on the heating blanket for 10 min then returned to dams. […] Tao and Johns, 2008. A single injection of peptide was given ip. Separate peptide cohorts were injected in parallel with mice undergoing exposure to anesthesia or O2 control. […]
1.3.3 Western Blotting. […] Proteins were detected by enhanced chemiluminescence (Amersham, Piscataway, N.J.). […]

C57BL6 mice = test: Novel object recognition at PND21; assay type: in vivo; details: mean ±SD, in s (unit assumed)
Experimental: 1.3.2 Anesthesia, Peptide, and Molsidomine Injections. PND7 control and experimental mice were placed in a clear plastic cone and body temperature maintained by a heating blanket set to 35° C. Vital signs and physiological monitoring were assessed using PhysioSuite® (Kent Scientific Corporation, Torrington, Conn., USA) and blood gasses were collected arterially. […] Note that lower concentrations of 02 can be used, e.g., between 20% to 100% 02, including 20%, 25%, 30%, 35%, 40%, 45%, 50%, 55%, 60%, 65%, 70%, 75%, 80%, 85%, 90%, 95%, 96%, 97%, 98%, 99%, and 100% 02. Naïve animals were left with the dams. Anesthesia was initiated with 2.4% ISO in 100% oxygen for 2 min and tapered down to 1.5% within 15 min. Exposure to 1.5% ISO was continued for 3 hours and 45 min (total 4 hours ISO). Control ‘CON’ animals were exposed to 100% oxygen only. At the end of the exposure animals were maintained in oxygen on the heating blanket for 10 min then returned to dams. […] Tao and Johns, 2008. A single injection of peptide was given ip. Separate peptide cohorts were injected in parallel with mice undergoing exposure to anesthesia or O2 control. Purification of fusion peptides was performed by Creative BioMart (Shirley, N.Y.) and verified by Coomassie blue staining and Western blot analysis and then stored in 10% glycerol/phosphate buffered saline at −80° C. until use. The Tat-PSD-95 PDZ2WT and MUT plasmids used to generate proteins containing an amino-terminal, in-frame, 11-amino-acid, minimal transduction domain (residues 47-57 of human immunodeficiency virus Tat protein) termed Tat. […] Fang et al., 2003. The NO donor molsidomine [(N-[ethoxycarbonyl]-3-[4-morpholinosydnomine] (Sigma, St. Louis, Mo.) was injected at 4 mg/kg into mice ip in 100 μL sterile saline as previously described. The NO donor was added immediately following cessation of anesthesia or control (O2) exposure, i.e., the NO donor was injected 4 hours after onset of anesthesia. One of ordinary skill in the art upon review of the present disclosure would appreciate that the NO donor could be administered at other times during anesthesia, including at the onset of anesthesia. Control animals were injected ip with the vehicle (saline).
1.3.7 Novel Object Recognition. The novel object recognition (NOR) procedure was based upon the original Ennaceur et al., 1988, procedure and was used to assess nonspatial hippocampal memory. Clark et al., 2000; Baker and Kim, 2002; Reger et al., 2009. It consisted of a training ‘familiarization’ phase followed by a testing phase. During training, mice were allowed to freely explore within an opaque box (40 cm W×40 cm L×34 cm H) containing two identical objects for 10 min. Data were recorded with a video camera and time spent with each object was recorded using ANYmaze software (Stoelting). Object investigation time was determined by the amount of time the mouse spent in the zone immediately surrounding the object. […] After 2 h, object recognition was tested, using the same procedure as in training except that a novel object was substituted for one of the familiar training objects and mice were allowed to explore for 5 min. Mice inherently prefer to explore novel objects; thus, a preference for the novel object indicates intact memory for the familiar object.

[1] = set-up: species or system mice; details: mouse, in vivo
Experimental: PND7 control and experimental mice were placed in a clear plastic cone and body temperature maintained by a heating blanket set to 35° C. Heart rate (HR) and oxyhemoglobin saturation (SpO2) were continuously monitored using pulse-oximetry (PhysioSuite, Kent Scientific). Arterial blood was collected by terminal cardiac puncture of the left ventricle from sentinels and pH (pHa) determined using a blood gas machine (ABL800 FLEX Series Radiometer). […] Naïve control animals were left with the dams. Control ‘CON’ animals were exposed to oxygen only. Anesthesia was initiated with 2.4% isoflurane in oxygen for 2 min and tapered down to 1.5% within 15 min. Exposure to 1.5% isoflurane was continued for 3 hours and 45 min (total 4 hours ISO). At the end of the exposure animals were maintained in oxygen on the heating blanket for 10 min then returned to dams. […] Tao and Johns, 2008. Purification of fusion peptides was performed by Creative BioMart (Shirley, N.Y.) and verified by Coomassie blue staining and Western blot analysis and then stored in 10% glycerol/phosphate-buffered saline at −80° C. until use. The Tat-PSD-95 PDZ2WT and MUT plasmids used to generate proteins containing an amino-terminal, in-frame, 11-amino-acid, minimal transduction domain (residues 47-57 of human immunodeficiency virus Tat protein) termed Tat. […] Fang et al., 2003. The NO donor Molsidomine [(N-[ethoxycarbonyl]-3-[4-morpholinosydnomine] (Sigma, St. Louis, Mo.) was injected at 4 mg/kg into mice ip in 100 μL sterile saline as previously described. Control animals were injected ip with the vehicle (saline).

[2] = PSD93KO mice exposed to ISO at PND7, tested at PND21
[3] = WT mice exposed at PND7, tested at PND21

Question: Which results are given for `FC(F)OC(Cl)C(F)(F)F` (racemic) [ISO, (RS)-2-chloro-2-(difluoromethoxy)-1,1,1-trifluoroethane]?
Answer: cleaved caspase-3 (Western blot) (caspase-3): did not yield any detectable cleaved caspase; investigation time of the known object (C57BL6 mice; [2]): 29±13; investigation time of the novel object (C57BL6 mice; [2]): 42±20; investigation time of the known object (C57BL6 mice; [3]): 18±12; investigation time of the novel object (C57BL6 mice; [3]): 29±11; arterial blood pH (pHa) [1]: 7.26±0.05; heart rate (HR) [1]: 611±84; oxyhemoglobin saturation (SpO2) [1]: 93±6
